The record followed here is patent publication US11964943B2, “3,5-diarylidenyl-n-substituted-piperid-4-one-derived inhibitors of Stat3 pathway activity and uses thereof” (priority 2017, dated 2024).

What all share (assay type): cell-based
In one experiment the test system is A-10 smooth muscle cells. In words: Microtubule disruption by indirect immunofluorescence. The note with it: 30 μM.
Experiment [1] deals with DU145 cells. In words: Colony formation assay for radiosensitization. How it is done: The X-Ray radiation facility provided an AGO HS MP-1 X-ray machine with a Varian ND1-321 tube used to produce X rays at a dose rate of 1 Gy/min.
Stock cultures were trypsinised and 2.5×10^4 cells were seeded into 6-well plates and incubated at 37° C. for 24-48 hours. When cells reached […] confluency, they were treated with IE-8 (0, 0.8, 1, and 1.2 μM) for 18 hours. After drug treatment, cells were harvested by trypsinisation and re-seeded. […] Plates were then incubated for 14 days at 37° C. with 5% CO2. After this incubation, plates were washed with tap water and fixed. Colonies were stained for 30 minutes at room temperature with 1% (w/v) crystal violet (Sigma-Aldrich) in 10% ethanol, and subsequently dried overnight at room temperature. Colonies consisting of at least 50 cells were counted for each treatment. The number of colonies in unirradiated wells was used to determine the plating efficiency (number of colonies/number of cells seeded). The following formula was used to calculate survival fraction: […]

The subject of experiment [2] is DU145 cells. In words: SRB growth inhibition assay for radiosensitization. The note with it: 18 h pretreatment, then irradiation. How it is done: Stock cultures were trypsinised and 2500 cells were seeded into each well of 96-well, flat-bottomed microtiter plates, in a volume of 200 μl and left to adhere overnight at 37° C. The desired concentrations of IE-8 or curcumin were prepared in culture medium immediately before use. Medium in wells was removed and 200 μl of drug medium mixture was added. Three replicates were used for each drug concentration. One solvent control lane was included in each experiment. Plates were incubated for 18 h at 37° C. At the end of the drug treatment, the media was replaced with 200 μl of fresh media. Subsequently the plates were irradiated at 0, 2, 4 and 6 Gy. The plates were incubated for three days in a humidified incubator at 37° C. with 5% CO2. The media in the wells was removed and 100 μl of ice-cold 10% (wt/vol) trichloroethanoic acid (TCA) was added per well, to fix the cells. […] Plates were left at room temperature for 20 minutes, and the optical density (OD) at 540 nm was determined using a microplate reader (Thermo). Growth inhibition was expressed as the fraction of control A540 (surviving fraction) and calculated from the following equation; fraction of control A540=OD of untreated control at each radiation dose. The mean surviving fraction for each drug concentration for each radiation dose was calculated.

The test system of experiment [3] is A2780-cisplatin resistant spheroids. In words: Spheroid diameter measurement. The note with it: for Diameter (μm): 96 h. The method, then: For cell spheroid formation, HCT116-oxaliplatin resistant cells, A2780-cisplatin resistant cells, and HT1080 cells were seeded in Corning® Spheroid opaque-walled 96 well Microplates (ultra-low attachment; Nuclon™ Sphera™, Thermofisher) at densities of 2000 cells/well in 100 μl of cell solution and allowed to grow for 4 days, before any manipulation.
The diameters of spheroid cells were determined using Cell^F Imaging Software. A diameter corresponds to the mean value of one horizontal and one vertical measurement.

Experiment [4] relates to HT1080 fibrosarcoma spheroids. In words: Spheroid invasion assay. The note with it: 3 μM, 90 h observation. How it is done: Multicellular spheroids from HT-1080 cells were grown for 4 days in RPMI 1640 medium in 96-well plates (Nunclon Sphera, Thermo Fisher) and their size was measured with an inverted microscope (Olympus CKX41, 4× objective) and Cell^F software. […] Growth factor reduced Matrigel (Becton Dickinson) was thawed on ice and diluted in 4° C. cold medium to a final concentration of 300 μg/mL with or without IE-8. One hundred fifty microliter of these solutions were added to the wells containing spheroids in 50 μL medium. The plate was incubated in a humidified atmosphere with 5% CO2 in air at 37° C. Both untreated and treated spheroids were monitored simultaneously with a JuliBr live cell analyzer (NanoEntek) for 90 h to visualize spheroid invasion, and every hour the relative cross-sectional area of the spheroids was measured.

For experiment [5], the system named is DU145 cells. Nature of the experiment: Live cell microscopy. The note with it: DU145, increasing concentration over 24 h. How it is done: 5×10^4 DU145 cells were seeded in 8-well chamber slides (Ibidi, Martinsried, Germany). After 24 h, cells were treated with the denoted concentration (μM) IE-8 and intracellular drug accumulation was imaged at 3 h intervals on a live cell microscope (Visitron Systems, Puchheim, Germany) using a 40× oil immersion DIC objective and VisiView® software.
LEDs were used for widefield DIC and fluorescence (436/20 nm excitation and 480/40 nm bandpass filter for (CFP) fluorescence illumination (Visitron Systems). Images were taken with a sCMOS 4.2MPxl digital camera.

Several values for one entry are separate records, joined by “and”; a condition that tells them apart may be missing. Identical values can stand only once.

“3,5-Di(3,4,5-trimethoxybenzylidene)-1-phenylpiperidin-4-one [IE-8]”: the effect on microtubules result in the experiment with A-10 smooth muscle cells is reported as “did not show any effect on the microtubules”.
As for `COc1cc(/C=C2\CN(c3ccccc3)C/C(=C\c3cc(OC)c(OC)c(OC)c3)C2=O)cc(OC)c1OC` [IE-8, 3,5-Di(3,4,5-trimethoxybenzylidene)-1-phenylpiperidin-4-one], the “colony formation following irradiation” value in the experiment with DU145 cells [1] (18 h pretreatment) is on record as “dose-dependent decrease in colony formation”. In addition, the Survival fraction amounted to 1.000 with DU145 cells [1] (IE-8 0.8 μM 18 h pretreatment, 0 Gy); 0.451 in the experiment on DU145 cells [1] (IE-8 0.8 μM 18 h pretreatment, 2 Gy); 0.147 with DU145 cells [1] (IE-8 0.8 μM 18 h pretreatment, 4 Gy); 0.047 with DU145 cells [1] (IE-8 0.8 μM 18 h pretreatment, 6 Gy); 0.013 with DU145 cells [1] (IE-8 0.8 μM 18 h pretreatment, 8 Gy); 1.000 in the experiment on DU145 cells [1] (IE-8 1 μM 18 h pretreatment, 0 Gy). In addition, the Survival fraction in the experiment with DU145 cells [1] (IE-8 1 μM 18 h pretreatment, 2 Gy) was 0.440; in the experiment on DU145 cells [1] (IE-8 1 μM 18 h pretreatment, 4 Gy) it was 0.134; with DU145 cells [1] (IE-8 1 μM 18 h pretreatment, 6 Gy), 0.026; in the experiment with DU145 cells [1] (IE-8 1 μM 18 h pretreatment, 8 Gy), 0.006; in the experiment on DU145 cells [1] (IE-8 1.2 μM 18 h pretreatment, 0 Gy) it was 1.000; in the experiment with DU145 cells [1] (IE-8 1.2 μM 18 h pretreatment, 2 Gy), 0.349. Further, the Survival fraction in the experiment on DU145 cells [1] (IE-8 1.2 μM 18 h pretreatment, 4 Gy) worked out at 0.077; in the experiment with DU145 cells [1] (IE-8 1.2 μM 18 h pretreatment, 6 Gy), 0.014; in the experiment with DU145 cells [1] (IE-8 1.2 μM 18 h pretreatment, 8 Gy) it was 0.002. The “radiosensitization (cell survival, SRB)” value with DU145 cells [2] is listed as “more efficient at reducing cell survival”. Also, in experiment [3] (10 μM IE-8, 96 hours), the spheroid size entry is reported as “markedly decreases the size of the spheroid”. For the same molecule, the “Diameter (μm)” value was 1176.0 μm in experiment [3] (IE-8 1.0 μM); 1037.0 μm in experiment [3] (IE-8 2.0 μM); 990.9 μm in experiment [3] (IE-8 3.0 μM); 820 μm and 819.7 μm in experiment [3] (IE-8 4.0 μM); 619.8 μm in experiment [3] (IE-8 5.0 μM). In addition, the “rate of confluence (invasion) of spheroids in matrigel” value in experiment [4] was “markedly reduced and also delayed”. Besides, the cytoplasmic vacuolisation result with DU145 cells [5] is given as “induced cytoplasmic vacuolisation”.
